pEC50, pIC50: −log10 of the molar value. Like-named read-outs stand apart in the source and are kept apart here.
How the values were obtained:
Type in all cases: cell-based
[1] = system: Pkd1-KO mouse-inner medullary collecting duct cells (mIMRFNPKD 5E4); experiment: 3D mice cyst assay; conditions: 10 μM; 72 h; forskolin
Method: This assays uses PKD1−/− knocked-down medullary mouse duct cells which form small cysts. This cysts are then further stimulated with forskolin causing their expansion. Test compounds are then added with additional forskolin in order to evaluate their ability to counteract cysts formation. After 3 days, these cells are imaged, to measure in particular cyst size, cell number, nucleus shape, wall thickness.
The 3D cyst culture assay has been performed with Pkd1-KO mouse-inner medullary collecting duct cells (m[…] 5E4) cells as described previously. (Booij et al. 2017) In short: m[…] 5.10^4 cells were mixed with Cyst-Gel (OcellO B. V., Oortweg 21, Leiden, 2333CH, Netherlands). 15 μL of cell-gel mix was pipetted to 384-well plates (Greiner μClear, Greiner Bio-One B.V.) using a CyBio Felix 96/60 robotic liquid dispenser (Analyik Jena A G). Gel-cell mix was plated at a final cell density of 2250 cells per well. After gel polymerization at 37° C. for 30 min, 33 μL culture medium was added to each well. Cells were grown in gel for 96 h, after which the cells were co-exposed with forskolin (Calbiochem) and the following molecules: Rapamycin (SelleckChem, S1039), Staurosporin (SelleckChem, 51421) were used as cyst inhibiting or toxic control respectively. Test compounds were tested in the 3D assay at the indicated final concentrations. […]

[2] = molecular target: T1, wild type mouse CFTR (Mus musculus, UniProt P26361); experiment: YFP halide (YHA) assay in mIMCD3_wt cells, Cpd 1 with Metformin
T1 construct: expressed in transfected cells; host or cells: mouse mIMCD3_wt cells (ATCC CRL-2123)
Method: To evaluate the ability of a test compound combination to inhibit wild type CFTR using tubular kidney cells, a YFP halide assay using mIMCD3_wt cells (ATCC® CRL-2123) transfected with wild type mouse CFTR was developed (Galietta, Jayaraman, and Verkman 2001). Cells were incubated during 24 h with a dose range of compound 1 or a combination of a dose range of compound 1 with increasing dose of Metformin Immediately before measurement, forskolin together with a dose range of compound 1 combined or not with increasing dose of Metformin was added the wild type CFTR expressing mIMCD3 cells in order to fully activate the available CFTR at the plasma membrane. Inhibition of the channel by test compounds was plotted to obtain IC50s.
Mouse mIMCD3_wt cells were transfected with 20 ng of wild type CFTR and 80 ng of plasmid encoding YFP (H148Q/I152L/F47L) using jetPEI (Polyplus transfection). Directly after transfection, cells were seeded in black 96-well plates coated with Poly-D-lysine at a density of 40,000 cells per well. The next day, cells were treated with compounds for 24 h. After this incubation period, cells were washed twice with DPBS with Ca^2+ and Mg^2+. Subsequently, cells were treated with 10 μM forskolin and the desired concentrations of compounds in a volume of 40 μl and incubated at room temperature for 15 min, a time point optimized in previous experiments resulting in a good window (positive control/negative control>2) and signal to background ratio. YFP fluorescence was measured using an EnVision plate reader (PerkinElmer). […] The excitation wavelength was 485 nm and the emission wavelength 530 nm.
Concentration-response experiments were fitted using a 4 parameter hill function of the form Response=Bottom+(Top−Bottom)/(1+(EC50/concentration)^HillSlope)) to determine EC50 values.

[3] = molecular target: T2, wt CFTR (CFTR channel) (Homo sapiens, UniProt P13569); experiment: TECC assay on normal primary human bronchial epithelial (HBE) cells; conditions: 0.3 μM forskolin
T2 construct: evaluate compounds on normal primary bronchial epithelial cells (HBE cells); endogenous in cells; host or cells: normal primary human bronchial epithelial (HBE) cells from donor lungs
Method: The TECC assay is used to evaluate compounds on normal primary bronchial epithelial cells (HBE cells), which are closer to physiological conditions
Bronchial epithelial cells isolated from transplanted lungs from normal (wt CFTR) were isolated from lungs obtained from donors undergoing a planned transplantation. These primary cells were cultured directly on type IV collagen-coated polycarbonate Transwell supports with a diameter of 6.5 mm and pore size of 0.4 μm (Costar, #3397) for 18 to 25 days in air liquid (ali) interface essentially as previously described for TECC. (Fulcher et al. 2005)
Trans-epithelial clamp circuit (TECC) recordings were performed using the TECC instrument developed and sold by EP Design (Bertem, Belgium). During the recording, the epithelial cells were bathed in a NaCl-Ringer solution (120 mM NaCl, 20 mM HEPES, 1.2 mM CaCl2, 1.2 mM MgCl2, 0.8 mM KH2PO4, 0.8 mM K2HPO4, 5 mM glucose, pH 7.4) on both the basolateral (640 μl) and the apical side (160 μl) and kept at 37° C. Apical amiloride was used to inhibit the endogenous ENaC currents (100 μM) while forskolin (0.3 μM) was applied on both the apical and basolateral sides to stimulate CFTR. All triggers and compounds used during the experiment were first dissolved in DMSO to a 1000× concentrated solution, just prior to treatment a 10× stock was prepared in the NaCl-Ringer solution which was used for addition of the correct concentration of trigger and or compound during the experiment. Cells were treated with test compounds for 24 hours before recording and this treatment was repeated in the TECC buffer prior to the electrophysiological recording. Measurements were done during a 20-min timeframe with recordings every 2 min. The transepithelial potential (PD) and transepithelial resistance (Rt) were measured in an open circuit and transformed to Ieq using Ohm's law. The maximal increase in Ieq (Δ Ieq) was used as a measure for the increased CFTR activity.

T1 sequence (P26361 whole entry): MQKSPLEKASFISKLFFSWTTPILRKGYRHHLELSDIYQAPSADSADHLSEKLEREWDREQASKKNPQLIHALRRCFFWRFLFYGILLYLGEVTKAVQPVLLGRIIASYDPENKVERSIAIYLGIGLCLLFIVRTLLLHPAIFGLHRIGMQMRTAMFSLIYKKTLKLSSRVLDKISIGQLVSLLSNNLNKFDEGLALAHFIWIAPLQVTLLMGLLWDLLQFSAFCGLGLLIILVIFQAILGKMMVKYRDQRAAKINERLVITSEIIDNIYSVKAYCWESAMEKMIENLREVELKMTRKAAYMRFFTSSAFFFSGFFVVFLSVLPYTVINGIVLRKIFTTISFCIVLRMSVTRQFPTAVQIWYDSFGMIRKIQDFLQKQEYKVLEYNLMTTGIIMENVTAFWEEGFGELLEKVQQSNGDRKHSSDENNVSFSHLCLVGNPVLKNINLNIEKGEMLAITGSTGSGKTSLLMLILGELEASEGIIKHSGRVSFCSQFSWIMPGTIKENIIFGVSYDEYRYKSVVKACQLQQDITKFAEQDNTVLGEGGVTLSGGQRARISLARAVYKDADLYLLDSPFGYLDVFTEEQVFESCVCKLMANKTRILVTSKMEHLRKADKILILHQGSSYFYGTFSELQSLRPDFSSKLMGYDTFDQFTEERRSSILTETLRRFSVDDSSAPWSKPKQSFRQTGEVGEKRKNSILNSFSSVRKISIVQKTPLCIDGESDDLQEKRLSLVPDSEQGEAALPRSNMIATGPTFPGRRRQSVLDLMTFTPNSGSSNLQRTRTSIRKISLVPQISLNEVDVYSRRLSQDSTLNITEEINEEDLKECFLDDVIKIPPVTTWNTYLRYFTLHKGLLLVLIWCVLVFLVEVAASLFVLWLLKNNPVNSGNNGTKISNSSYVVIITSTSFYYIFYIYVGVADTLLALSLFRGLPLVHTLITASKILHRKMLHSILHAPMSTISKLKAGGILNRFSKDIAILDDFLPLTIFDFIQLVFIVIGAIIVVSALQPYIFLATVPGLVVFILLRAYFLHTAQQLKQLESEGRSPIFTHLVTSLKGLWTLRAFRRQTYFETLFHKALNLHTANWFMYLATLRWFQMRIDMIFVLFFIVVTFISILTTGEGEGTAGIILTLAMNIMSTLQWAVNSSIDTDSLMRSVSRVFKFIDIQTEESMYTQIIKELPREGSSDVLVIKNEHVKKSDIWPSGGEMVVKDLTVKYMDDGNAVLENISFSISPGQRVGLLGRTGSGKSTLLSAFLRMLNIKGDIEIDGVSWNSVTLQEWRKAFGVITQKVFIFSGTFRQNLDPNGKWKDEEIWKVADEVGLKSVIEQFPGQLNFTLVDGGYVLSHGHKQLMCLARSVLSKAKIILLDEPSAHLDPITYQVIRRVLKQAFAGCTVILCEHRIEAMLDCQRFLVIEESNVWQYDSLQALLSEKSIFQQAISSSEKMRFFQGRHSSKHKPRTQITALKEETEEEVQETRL
T2 sequence (P13569 whole entry): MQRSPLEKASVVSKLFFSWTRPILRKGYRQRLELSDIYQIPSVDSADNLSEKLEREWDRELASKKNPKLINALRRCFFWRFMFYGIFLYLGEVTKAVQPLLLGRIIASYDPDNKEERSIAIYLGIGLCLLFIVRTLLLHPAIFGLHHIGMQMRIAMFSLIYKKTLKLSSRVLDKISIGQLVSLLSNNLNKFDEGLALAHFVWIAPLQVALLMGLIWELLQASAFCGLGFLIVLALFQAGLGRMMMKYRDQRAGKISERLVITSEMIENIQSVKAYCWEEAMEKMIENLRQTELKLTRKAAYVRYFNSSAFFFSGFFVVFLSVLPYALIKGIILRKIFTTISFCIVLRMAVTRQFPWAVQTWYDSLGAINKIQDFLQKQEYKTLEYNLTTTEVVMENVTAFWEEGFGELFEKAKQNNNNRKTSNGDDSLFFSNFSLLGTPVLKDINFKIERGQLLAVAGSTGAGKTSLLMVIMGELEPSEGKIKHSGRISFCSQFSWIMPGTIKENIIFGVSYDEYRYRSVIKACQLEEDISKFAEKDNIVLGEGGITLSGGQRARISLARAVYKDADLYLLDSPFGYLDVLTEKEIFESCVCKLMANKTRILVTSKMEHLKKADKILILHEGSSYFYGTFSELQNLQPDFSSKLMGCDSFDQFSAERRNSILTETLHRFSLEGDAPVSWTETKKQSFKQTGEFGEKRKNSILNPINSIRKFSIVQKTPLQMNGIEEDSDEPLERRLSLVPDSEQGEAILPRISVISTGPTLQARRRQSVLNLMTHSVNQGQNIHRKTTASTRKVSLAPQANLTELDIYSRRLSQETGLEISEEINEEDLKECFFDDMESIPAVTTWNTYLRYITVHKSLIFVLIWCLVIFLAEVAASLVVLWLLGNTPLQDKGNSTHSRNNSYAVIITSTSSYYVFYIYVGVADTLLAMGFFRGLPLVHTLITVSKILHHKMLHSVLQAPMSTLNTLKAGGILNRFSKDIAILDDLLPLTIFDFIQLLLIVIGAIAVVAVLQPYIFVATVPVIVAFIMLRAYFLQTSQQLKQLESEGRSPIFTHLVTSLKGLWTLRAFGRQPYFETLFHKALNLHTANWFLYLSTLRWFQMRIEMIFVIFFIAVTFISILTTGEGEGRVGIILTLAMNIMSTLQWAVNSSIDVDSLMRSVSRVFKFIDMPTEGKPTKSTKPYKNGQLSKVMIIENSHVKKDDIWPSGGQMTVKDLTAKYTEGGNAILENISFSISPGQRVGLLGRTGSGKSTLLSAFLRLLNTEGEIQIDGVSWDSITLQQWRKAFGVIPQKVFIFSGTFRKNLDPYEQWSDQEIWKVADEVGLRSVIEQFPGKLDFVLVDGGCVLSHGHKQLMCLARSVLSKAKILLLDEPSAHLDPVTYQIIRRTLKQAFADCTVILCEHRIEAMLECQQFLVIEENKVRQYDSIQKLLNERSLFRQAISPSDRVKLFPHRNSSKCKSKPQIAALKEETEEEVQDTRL

- pEC50 ([2]; Compound 1 alone at 30 μM, mouse mIMCD3_wt cells, read-out: EC50 of inhibition of mouse CFTR activity): 5.51
- pIC50 ([2]; [Metformin] 0 μM, mIMCD3_wt cells, read-out: IC50): 5.51
- pIC50 ([2]; [Metformin] 20 μM, mIMCD3_wt cells, read-out: IC50): 5.44
- pIC50 ([2]; [Metformin] 40 μM, mIMCD3_wt cells, read-out: IC50): 5.63
- pIC50 ([2]; [Metformin] 80 μM, mIMCD3_wt cells, read-out: IC50): 5.42
- pIC50 ([2]; [Metformin] 160 μM, mIMCD3_wt cells, read-out: IC50): 5.54
- pIC50 ([2]; [Metformin] 310 μM, mIMCD3_wt cells, read-out: IC50): 5.72
- pIC50 ([2]; [Metformin] 630 μM, mIMCD3_wt cells, read-out: IC50): 5.75
- pIC50 ([2]; [Metformin] 1250 μM, mIMCD3_wt cells, read-out: IC50): 5.74
- pIC50 ([2]; [Metformin] 2500 μM, mIMCD3_wt cells, read-out: IC50): 6.08
- pIC50 ([2]; combined with 5 μM of Metformin, mouse mIMCD3 cells, read-out: IC50 of inhibition of mouse CFTR): 6.04
- IC50 ([3]; read-out: IC50 value (resulting from pIC50) (converted)): 108 nM
- reduction of channel activity ([3]; vs DMSO control): 54%
- current after incubation (Ieq) ([3]; 24 h treatment): 6.6 μA/cm^2
Compound: COC1CCN(C2CCN(c3cc(C(=O)NS(=O)(=O)N(C)C)nc4c3c(C3CCC3)nn4-c3ccc(F)cc3)CC2)CC1 [Cpd 1]
- cyst swelling compared to vehicle (set at 100%) [1]: 14.5%
- reduction in cyst swelling [1]: 85.5%
